{"source": "patent US11427808B2", "about": "“Method for serum-free culture of chondrocytes and serum-free culture medium” (Regenesis Science Co., Ltd., priority 2014, dated 2022)", "system": "primary human chondrocytes", "assay": "serum-free culture of human chondrocytes, cell proliferation", "type": "cell-based", "conditions": "for proliferation of cultured chondrocytes (number of cells): 4th, 7th, 14th and 21st day", "protocol": "Primary human chondrocytes were isolated from a fresh sample of articular cartilage, and the sample was fractionated. The obtained fractionated sample was then immersed in a 0.1% to 0.3% collagenase solution, and subjected to enzymatic digestion at 37° C. for 4 to 5 hours. The obtained cells were collected by centrifugation for 5 minutes at 1,200 rpm. A mixture obtained by adding 100 ng/mL FGF, 0.5 μM SAG, 400 ng/mL HC, 5 ng/mL IGF, and 5 μg/mL insulin to DMEM medium was used as a culture medium. The cultured cells previously obtained were seeded at a density of 1000 cells/cm^2 and cultured in an environment of 37° C. and 5% CO2. A mixture obtained by adding 100 ng/mL FGF2, 0.5 μM SAG, 400 ng/mL HC, 5 ng/mL IGF and 5 μg/mL insulin to DMEM medium was used as a culture medium for subculture. The cultured cells in Example 1 were seeded at a density of 10000 cells/cm^2 and cultured in an environment of 37° C. and 5% CO2. In order to examine the optimum concentration of SAG added to a culture medium, the concentration of SAG in a serum-free culture medium was changed to 0.05 uM, 0.01 uM or 0.5 uM, and an influence on proliferation of cultured chondrocytes was examined. Specifically, chondrocytes prepared in the same procedure as in Example 1 were seeded at a density of 10000 cells/well, and the number of cells on the 4th, 7th, 14th and 21st day after seeding was measured. Because SAG is a very expensive reagent, it is preferred that SAG be able to be used at as low concentration as possible. […] Specifically, the concentration of SAG in a serum-free culture medium to which ITS had been added was changed to 0.01 uM, 0.05 uM, 0.1 uM or 0.5 uM, and the cultured chondrocytes were cultured, and the number of cells on the 4th, 7th, 14th and 21st day after seeding was measured. In order to further examine the effect of ITS and SAG on an increase in chondrocytes, an increase in chondrocytes was examined in treated sites to which both ITS and SAG were added (ITS+ 0.01 uM SAG, ITS+ 0.1 uM SAG), a treated site to which ITS was added alone (ITS+ SAG−), and a treated site to which ITS and SAG were not added (ITS− SAG−)."}
{"smiles": "CNC1CCC(N(Cc2cccc(-c3ccncc3)c2)C(=O)c2sc3ccccc3c2Cl)CC1", "note": "(stereo not drawn) [SAG]", "values": [{"measurement": "culture of chondrocytes", "setting": "Comparative Example 1: primary culture as Example 1 but DMEM medium not containing SAG, first to 5th day, FIG. 3", "result": "chondrocytes could not be effectively cultured in the state without SAG"}, {"measurement": "culture of chondrocytes", "setting": "Comparative Example 2: subculture as Example 2 but DMEM medium not containing SAG, first to 13th day, FIG. 7", "result": "chondrocytes could not be effectively cultured in the state which does not contain SAG"}, {"measurement": "effect on proliferation of chondrocytes", "setting": "ITS+ 0.01 uM SAG, ITS+ 0.1 uM SAG, FIG. 14", "result": "an obvious effect can be obtained by combining SAG"}, {"measurement": "proliferation of cultured chondrocytes (number of cells)", "setting": "SAG 0.01 uM to 0.5 uM added along with ITS, FIG. 13", "result": "an increase in chondrocytes was almost equally observed"}, {"measurement": "proliferation of cultured chondrocytes (number of cells)", "setting": "SAG 0.05 uM, 0.01 uM or 0.5 uM in serum-free culture medium, no ITS, FIG. 12", "result": "an obvious difference which had been expected was not observed"}]}
{"smiles": "O=C1O[C@H]([C@@H](O)CO)C(O)=C1O", "note": "[ascorbic acid]", "values": [{"measurement": "effect on culture of chondrocytes in a serum-free culture medium", "setting": "Example 1: 50 μg/mL ascorbic acid added on the 18th day of culture", "result": "very effective"}, {"measurement": "effect on culture of chondrocytes in a serum-free culture medium", "setting": "Example 2 (subculture): 50 μg/mL ascorbic acid added on the 18th day of culture", "result": "very effective"}]}
{"smiles": "O=C(O)c1ccccc1C(=O)Nc1ccc(-c2ccccc2)cc1", "note": "[kartogenin, 2-[(biphenyl-4-yl)carbamoyl] benzoic acid]", "values": [{"measurement": "effect on proliferation of chondrocytes", "setting": "ITS+ 1 uM Kartogenin", "result": "the effect on proliferation of chondrocytes was observed"}, {"measurement": "proliferation of chondrocytes", "setting": "kartogenin added in place of SAG", "result": "effective for the proliferation of chondrocytes"}]}
